Experimental data published in patent US20260130856A1, “LIPOSOME COMPOSITIONS FOR DELIVERY OF COMPOUNDS AND METHODS THEREOF” (NanoTech Pharma Inc., priority 2022, published 2026).

Assay: In vivo pharmacokinetics study of carfilzomib formulations, plasma carfilzomib by LC-MS
Settings: BALB/c nude, mouse, mice, intravenous via tail vein, 5.0 mg/kg
Method: The carfilzomib-loaded liposome was prepared based on the description in Example 17. In-vivo pharmacokinetics study was carried out in BALB/c nude mice. Carfilzomib drug solution (free drug) and liposomal carfilzomib were administered intravenously via the tail vein into the mice and the plasma concentration of carfilzomib of both formulations were monitored over time by LC-MS. The injection dose of both drug formulations was 5.0 mg/kg. After intravenous administration, blood was collected at pre-determined time points (3 mice per time point) and was placed into EDTA coated micro containers. The samples were then centrifuged to separate plasma. Plasma levels of carfilzomib were quantified by using LC-MS. PK parameters were then calculated from measured drug plasma concentrations over time.

AUC(0-t): 486 ng·h/mL | clearance: 170 mL/min/kg | half-life: 19.2 min | Vd (read-out: Vdss): 5.36 L/kg
SMILES: CC(C)C[C@H](NC(=O)[C@H](CCc1ccccc1)NC(=O)CN1CCOCC1)C(=O)N[C@@H](Cc1ccccc1)C(=O)N[C@@H](CC(C)C)C(=O)[C@@]1(C)CO1 [Free carfilzomib, carfilzomib]
